From patent US20260094669A1, “EPITOPE PREDICTION VIA A LEARNED GENOTYPE NETWORK ACROSS CLASS II MHC ALLELES” (Seattle Project Corp., priority 2023, published 2026)

T1: HLA-DP of Raji cells (DPA1*02:02/DPB1*01:01) (human, UniProt P20036 29-222; P04440 30-225, limits assumed)
T1 construct: whole, on cells; also called Raji_25mer DP
T1 MHC II alpha: not shown
T1 MHC II beta: not shown


What was measured:
CD4+ T cell = conditions: CD4+ immunogenicity label (1/0) used in logistic regression; ELISpot response data from Ott et al.; cited from earlier work
[1] = tested on: CD4 or CD8 T cell depleted PBMCs; assay: CD4/CD8 depletions followed by IFNγ ELISpot or FluoroSpot; assay type: cell-based, human
Protocol: CD4 or CD8 T cells were depleted from total PBMCs using Miltenyi MACS microbeads and columns. PBMCs were labeled with anti-CD4 or anti-CD8 microbeads before being run through a MACS Column placed in a MACS Separator magnet. Labeled cells remained in the column and the negative fractions were collected as either the CD8 or CD4 enriched population. Cells were then plated at 200,000 cells/well and stimulated overnight in an IFNγ ELISpot assay or FluoroSpot assay to detect IFNγ or IL-2.

[2] = tested on: IFNγ-producing T cells (PBMCs); assay: ex vivo IFNγ ELISpot assay; assay type: cell-based, human
[3] = tested on: rTCR Jurkat cells (CD69, CD25); assay: recombinant TCR (rTCR) Jurkat functional assay; assay type: cell-based, human; conditions: co-culture with class II matched KAS116 cells
[4] = molecular target: T2, HLA-DP of DBB cells (DPA1*01:03/DPB1*04:01) (human, UniProt P20036 29-222; P04440 30-225, limits assumed); assay: targeted MS of peptides eluted from HLA-DP IP (B7/21.1), DBB cells expressing KRAS G12C 25mer
T2 construct: whole, on cells; also called DBB_25mer DP
T2 sequence (P20036 29-222 limits assumed, chain 1 of 4, other chains not shown): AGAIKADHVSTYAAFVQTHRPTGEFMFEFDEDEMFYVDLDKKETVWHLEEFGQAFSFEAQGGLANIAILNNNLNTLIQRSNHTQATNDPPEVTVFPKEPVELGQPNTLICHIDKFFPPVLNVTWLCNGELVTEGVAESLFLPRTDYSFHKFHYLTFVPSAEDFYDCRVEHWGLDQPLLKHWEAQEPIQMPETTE
T2 sequence (P04440 30-225 limits assumed, chain 2 of 4, other chains not shown): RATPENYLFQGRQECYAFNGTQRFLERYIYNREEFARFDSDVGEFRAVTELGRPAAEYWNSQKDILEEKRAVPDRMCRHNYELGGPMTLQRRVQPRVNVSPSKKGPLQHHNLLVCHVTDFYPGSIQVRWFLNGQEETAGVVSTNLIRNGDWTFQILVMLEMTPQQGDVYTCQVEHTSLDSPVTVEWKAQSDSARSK

[5] = molecular target: T1, HLA-DP of Raji cells …; assay: targeted MS of peptides eluted from HLA-DP IP (B7/21.1), Raji cells expressing KRAS G12C 25mer

Molecule	y (CD4+ T cell)	also measured
ARLQSKEYPVIFKSIMRQRLISPQL	0	
TFPKKIQMLARDFLDEY	0	
SHTQTTLFHTFYELLIQKNKHK	0	
SPQSGGAATLAAQARLQPVHLDVWGEHERG	0	
RGRLPAGAVRTLLSQVNKVWDQSS	0	
LENNANHDETSFLLPRKESNIVD	0	
FCGTPDYIAPKIIAYQPYGKSVD	0	
WCTEMKRVFGFPVHYTDVSNMS	0	
SLPSNVLSSLVLVPLHTTPK	0	
STEVEPKESPHLARHRHLMKTLVKSLST	0	
TRNSFALVPSLQRLMLRKVALKNVDSSPS	0	
ALLQNVELRRNVLVSPTPLAN	0	
DRASFLLTDYALSPDGSIRKATG	1	
DGVSEEFWLVDLLPSTHYT	1	
NNSKKKWFLFQDSKKIQVEQPQ	0	
SHLASLKNNVSPVLRSHSFSDPSPKFA	1	
DEQGREAELARSGPSAAGPVRLKPGLVPGL	0	
RGQIKLADFRLARLYSSEESR	0	
GPLQLPVTRKNMPLPGVVKLPPLPGS	0	
SRLQTRKNKKLALSSTPSNIAPSD	1	
TTPSGSAEYMASEVVEVFTDQAT	0	
SSHYKFSKPALQSQSISLVQQS	1	
RLVLGKFGDLTNNFSSPHAR	0	
GRMSPSQFARVPGYVGSPLAAMNPK	1	
DGAWPVLLDKFVEWYKDKQMS	0	

Molecule	y (CD4+ T cell)	also measured
EDLDANLRKLNFRLFVIRGQPAD	0	
SLTEESGGAVAFFPGNLSTSSSA	0	
AASAAAFPSQRTSWEFLQSLVSIKQEK	1	
STQHADLTIIDNIKEMNFLRRYK	0	
YLSHTLGAASSFMRPTVPPPQF	0	
LGETMGQVTEKLQPTYMEET	0	
ELQYRGRELRFNLIANQHLLAPGFVSETR	1	
VKQLERGEASVVDFKKNLEYAAT	0	
PASAKSRREFDKIELAYRR	0	
NLKAPRLLFAPEYGPKLKLRALEDRHS	0	
SHQIHSYQLYTHPLLHPWDHRD	0	
MSQDIKKADEQIESMTYSTERKT	0	
DRSVLAKKLKFVTLVFRHGDRSPID	0	
SSPLGRANGRRFANPRDSFSAMGFQR	0	
HLLQKQTSIQSPSLYGNSSPPLNK	0	
KMQRRNDDKSILMHGLVSLRESSRG	0	
VTSPKASPVTFPAAAFPTASPANKD	1	
KHLPGVNFPGNQWNPVEGILPS	0	
TIKNSDKNVVLEHFG	0	
GDQYKATDFVADWAGTFKMVFTPKDGSG	1	
PENDDLFMMPRIVDVTSLATEGG	0	
EYKLVVVGACG [Peptide_29]		responses in CD4 enriched (CD8 depleted) samples ([1]; PBMCs from single donors, peptide #29: donor SE-0386): demonstrated responses; T cell response in healthy donor SE-0386 ([1]; class II long OLP pools deconvolution): CD4^+ T cell-dependent response; response to single peptides from CD8 pools, ex vivo ELISpot ([2]; PBMCs from single donor SE-0386): demonstrated a response; responses to single 8-11mer peptides, ex vivo IFNγ ELISpot ([2]; patient G05-002-122 PBMCs following vaccination): confirmed responses; response of TCR969/TCR995 rTCR Jurkat cells to the peptide [3]: confirmed responses
GSGSQMPAWRTRGAISASSTQKTPTTRL	0	
MAGPKGFQYRALYPFRRER	0	
DSYHLYAYHEELSATVPSQWKKIG	0	

Molecule	y (CD4+ T cell)	also measured
GSVLQFMPFTTVSELMKVSAMSSPKV	0	
AAVRPEQRPAARGSRV	0	
KLRTIPLSDNTIFRRICTIAKHLE	1	
GHQKLPGKIHLFEAEFTQVAKKEPDG	1	
LHTHYDYVSALHPVSTPSKEYTSA	0	
TETVNHHYLLFQNTDLGSFHDLLR	1	
TKRQVILLHTELERFLEYLPLRF	0	
SPIKLVQKVASKIPFPDRITEESV	0	
TTVTHERKQAKVVNPPIQEVGKGARK	0	
VNGISSQPQVPFYPNLQKSQYYSTV	0	
RYNSTAATNEVSEVTVFSKSPVT	0	
PETGEIQVKTFLDREQRESYELKV	0	
HASHLQEHQRIYTGEKPFKCDT	0	
VTLNDMKARQKALVRERERQLA	0	
LSPREEFLRLCKKIMMRSIQ	1	
STLPVISDSTTKRRWSALVIGL	0	
EIHGKCENMTITSRGTTVTPTKETVSLG	0	
EVVGGYTWPSGNIYQGYWAQGKR	0	
EDSDKLFESKAELADHQKF	0	
KGEKNGMTFSSTKDYVNNV	0	
PGGDSGELITDAHELGVAHPPGY	0	
SHKLESIKEITNFKDAKQLL	0	
LNTGLFRIKFKEPLENLI	0	
DGGRQHSGPRRHSGAGPKPSSSEWAVCWAP	0	
FAKGFRESDLNSWPVAPRPLLSV	0	

Molecule	y (CD4+ T cell)	also measured
RRGGALFASRPRFTPL	0	
NQVLASRYGIRGFSTIKIFQKGESPV	0	
GHEHQPDMQKSLLRAAFFGKCFLDR	1	
SLRNNMFEISDRFIGIYKTYNITK	0	
FPVVQSTEDVFPQGLPNEYAFVT	0	
SHHTHSYQRYSHPLFLPGHRLDPPI	0	
SPGPRTAPRPGSQKQAGKDWQ	0	
WTPAAPTAMAEVGPGHTPAHPSQGAVPP	1	
RPAGRTQLLWTPAAPTAMAEVGPGHTP	1	
ASATEPANDSLFSPGAANLFSTYLAR	0	
TAQFAPSPGQPPALSPSYPGHRLPLQQG	0	
ERFWRNILLLSLHKGSLYPRIPGLGKE	0	
SGSPPLRVSVGDFSQEFSPIQEAQQD	1	
LCPREEFLRLCKKIMMRSIQ	0	
TGKPEMDFVRLAQLFARARPMGLF	0	
SDAFSGLTALPQSILLFGP	0	
DKGHQFHVHPLLHSGDDLDP	0	
DVTGPHLYSIYLHGSTDKLPYVTMGS	0	
SHNELADSGIPENSFNVSSLVE	0	
TKLKSKAPHWTNCILHEYKNLSTS	0	
PAHPSQGAVPPSRAAAEPHLKPSPSELQTA	1	
PAPPPAVPKEHPAPPAPPPASAPTP	0	
GLTRISIQRAQPLPPCLPSFRPPTALQGLS	0	
MTEYKLVVVGAC (KRAS G12C peptide eluted from HLA class II of cells engineered to express a KRAS G12C construct; also called Peptide_098class2; KRAS MHC II Peptide 098)		binding result [4]: binds
GACGVGKSALTIQLI (KRAS G12C peptide eluted from HLA class II of cells engineered to express a KRAS G12C construct; also called Peptide_099class2; KRAS MHC II Peptide 099)		binding result [5]: binds
